According to US20230192699A1, “COMPOUNDS AS CASEIN KINASE INHIBITORS” (GRITSCIENCE BIOPHARMACEUTICALS CO., LTD., priority 2020, published 2023):

How the values were obtained:
[1] = system: MDA-MB-231 cells (breast cancer cells); assay: Transwell cell migration assay; type: cell-based; conditions: MDA-MB-231, 24 h; for relative migration (%) of cells: FIG. 61; for migrated cells: FIGS. 62-67
Method: MDA-MB-231 cells (breast cancer cells) were starved in 0.5% serum-DMEM for 8 hours. For the migration assay, a total of 5×10^4cells were suspended in 500 μL of serum-free DMEM medium and seeded into the upper chamber of a […] pore size insert. Then, 750 μL of DMEM (containing 10% FBS) with or without the compound of the present application was added to the lower compartment. After incubation at 37° C. for 24 h, migrated cells were washed with PBS, fixed in 4% PFA and stained for 30 min in crystal violet solution (0.1% crystal violet). […] Each insert was photographed in 3 random fields at a magnification of 40×.

[2] = target: wild type CK1δ (Homo sapiens, UniProt P48730); assay: CK1δ kinase assay (Kinase-Glo); type: biochemical; conditions: 10 μM ATP, 2 nM wild type CK1δ, 85 min at 25° C.; read-out: CK1δ inhibition (IC50)
Method: The CK1δ kinase assay was performed with a buffer (40 μL, pH 7.5) containing 50 mM Tris, 10 mM MgCl2, 1 mM dithiothreitol, 100 μg/mL BSA with 10 μM ATP, 2 nM wild type CK1δ, and 42 μM peptide substrate PLSRTLpSVASLPGL (Flotow et al., 1990) in the presence of 1 μL of a CK1δ inhibitor (e.g., a compound of the present application) or 4% DMSO (e.g., as control). The reaction mixture was incubated for 85 min at 25° C.; detection was carried out as described for the Kinase-Glo Assay (Promega). Luminescent output was measured on the Perkin Elmer Envision plate reader (PerkinElmer, Waltham, Mass.).

[3] = system: MDA-MB-231 cells; assay: Cell proliferation assay (crystal violet); type: cell-based; conditions: various concentrations, 72 hours
Method: MDA-MB-231 cells treated with a compound of the present application (e.g., compound 1-1, 2-5, 1-14 and 3-8, respectively) were seeded at a density of 5×10^4cells/well in 12-well plate and incubated at 37° C. with 5% CO2. After 72 hours of culturing, the cells were washed with PBS, fixed in 4% formaldehyde for 15 minutes and stained with 0.1% crystal violet for 20 minutes. Cells were washed with water and the staining was extracted with 10% acetic acid for 20 minutes and absorbance was measured at 590 nm. The experiments were performed in triplicates.

Sequence of wild type CK1δ (P48730 whole entry): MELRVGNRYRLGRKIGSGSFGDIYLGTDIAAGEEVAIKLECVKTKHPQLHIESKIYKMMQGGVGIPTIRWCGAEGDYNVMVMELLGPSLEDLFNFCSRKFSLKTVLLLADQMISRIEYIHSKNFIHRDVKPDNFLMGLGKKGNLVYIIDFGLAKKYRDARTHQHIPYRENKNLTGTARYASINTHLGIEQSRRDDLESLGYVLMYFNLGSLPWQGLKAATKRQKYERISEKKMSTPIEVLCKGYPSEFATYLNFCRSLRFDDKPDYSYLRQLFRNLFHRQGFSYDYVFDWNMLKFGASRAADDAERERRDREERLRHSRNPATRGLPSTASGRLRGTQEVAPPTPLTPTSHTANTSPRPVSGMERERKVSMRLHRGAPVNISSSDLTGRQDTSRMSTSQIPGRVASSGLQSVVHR

IC50 [2] [nM] | Compound | relative migration (%) of cells [1] | migrated cells [1] | relative proliferation (%) of cells [3]
61.5 | CC(=O)N1CCn2nc(-c3ccc(F)cc3)c(-c3ccncc3)c2C1 [Compound 1-14, 1-(2-(4-fluorophenyl)-3-(pyridin-4-yl)-6,7-dihydropyrazolo[1,5-a]pyrazin-5(4H)-yl)ethan-1-one] | reduced | suppressed the migration | affected in a concentration dependent manner
408 | Fc1ccc(-c2nc3c(n2-c2ccncc2)CCCC3)cc1 [Compound 2-5, 2-(4-fluorophenyl)-1-(pyridin-4-yl)-4,5,6,7-tetrahydro-1H-benzo[d]imidazole] | reduced | suppressed the migration | affected in a concentration dependent manner
